tested on: HT-29 cells (colon cancer cells); assay: In vitro assay for protection of HT-29 cells from necroptosis (TNFα/Smac mimetic/Z-VAD-FMK, CCK-8); type: cell-based; conditions: Homo sapiens, Protective Activity Against Necroptosis, TNFα/Smac mimetic/Z-VAD-FMK induced, 24 h
From the text: Z′=1−3(SDmin+SDmax)/(AVEmax−AVEmin) • wherein: • Min is the positive control Data, and Max is the negative control DMSO Data. • SD is the standard deviation, and AVE is the average. In Vitro Assay for Protection of HT-29 Cells from Necroptosis:
1) Experimental Materials
DMEM medium was purchased from Gibco; penicillin-streptomycin was purchased from Hyclone; TNFα was purchased from Peprotech; Smac mimetic and Z-VAD-FMK were purchased from Selleck; and CCK-8 was purchased from Medchem Express.
HT-29 cells (colon cancer cells) were cultured in DMEM+10% FBS+penicillin/streptomycin. For the experiment, HT-29 cells in the logarithmic phase were collected and seeded into 96-well plates at a specific density (typically 8×10^3 cells/well for adherent cells). The cells were cultured overnight in an incubator at 37° C. with 5% CO2. On the following day, the test compound was diluted with culture medium to the corresponding concentrations and added into the 96-well plate, with 3 replicate wells for each sample. A solvent control group and a blank control group containing only culture medium were set simultaneously. The spiked cells were induced with a combination of TNFα/Smac mimetic/Z-VAD-FMK for 24 h. Subsequently, 10 μL of CCK8 solution was added to each well, and the cells were incubated in an incubator for 1-3 h. Absorbance was measured at […] using a microplate reader, and the cell necrosis protection rate of the drug was calculated using the following formula:
Cell necrosis protection rate=[(X−C0)/(C−C0)]×100% • where C, C0, and X represent the average absorbance values of the solvent control group, the blank control group, and the drug treatment group, respectively. Finally, a cell viability curve was fitted using Graphpad Prism 5.0 software, and the EC50 value of the test compound for inhibiting necroptosis was calculated.

Compared with `C[C@H](NC(=O)c1cn(C)c2ccc(-c3ccn4nc(NC(=O)CN5CC(O)CC5=O)nc4c3)cc12)c1ccc(F)cc1` (stereo in doubt) [Compound 3], `C[C@H](NC(=O)c1cn(C)c2ccc(-c3ccn4nc(NC(=O)CN5CC[C@@H](O)C5)nc4c3)cc12)c1ccc(F)cc1` [Compound 12] is lower in EC50: 10 to 100 nM for the first, less than 1 nM for the second.

First: CC(=O)Nc1nc2cc(-c3ccc4c(c3)c(C(=O)NC3CCc5cc(F)ccc53)cn4C)ccn2n1 (stereo in doubt) [Compound 127]
Second: C[C@H](NC(=O)c1cn(C)c2ccc(-c3ccn4nc(NC(=O)[C@@H]5CCC(=O)N5)nc4c3)cc12)c1ccc(F)cc1 [Compound 14]
The EC50 of the first is higher: 1000 to 10000 nM for the first, less than 1 nM for the second. The second is the more potent here.

First: CC(C(=O)Nc1nc2cc(-c3ccc4c(c3)c(C(=O)N[C@@H](C)c3ccc(F)cc3)cn4C)ccn2n1)N1CC[C@H](O)C1 (stereo partly shown) [Compound 1]
Second: C[C@H](NC(=O)c1cn(C)c2ccc(-c3ccn4nc(NC(=O)CN5CC[C@H](O)C5)nc4c3)cc12)c1ccc(F)cc1 [Compound 41]
The EC50 of the first is higher: 10 to 100 nM for the first, less than 1 nM for the second. The second is the more potent here.

`C[C@H](NC(=O)c1cn(C)c2ccc(-c3ccn4nc(NC(=O)CN5CCC(O)(O)CC5)nc4c3)cc12)c1ccc(F)cc1` [Compound 5] and `C[C@H](NC(=O)c1cn(C)c2ccc(-c3ccn4nc(NC(=O)CN5CCC(F)(F)CC5)nc4c3)cc12)c1ccc(F)cc1` [Compound 47] cannot be ordered by EC50: less than 1 nM for the first, less than 1 nM for the second.

`C[C@H](NC(=O)c1cn(C)c2ccc(-c3ccn4nc(NC(=O)CN5CCC(O)CC5)nc4c3)cc12)c1ccc(F)cc1` [Compound 6] and `C[C@H](NC(=O)c1cn(C)c2ccc(-c3ccn4nc(NC(=O)CN5CCC(C#N)CC5)nc4c3)cc12)c1ccc(F)cc1` [Compound 23] cannot be ordered by EC50: less than 1 nM for the first, less than 1 nM for the second.

Compared with `C[C@H](NC(=O)c1cn(C)c2ccc(-c3ccn4nc(NC(=O)CN5CCC[C@H](O)C5)nc4c3)cc12)c1ccc(F)cc1` [Compound 7], `C[C@H](NC(=O)c1cn(C)c2ccc(-c3ccn4nc(NC(=O)CN5CCC[C@@H](O)C5)nc4c3)cc12)c1ccc(F)cc1` [Compound 49] is higher in EC50: less than 1 nM for the first, 1 to 10 nM for the second. The first is the more potent here.

`CCn1cc(C(=O)N[C@@H](C)c2ccc(F)cc2)c2cc(-c3ccn4nc(NC(=O)CN5CCOCC5)nc4c3)ccc21` [Compound 8] and `C[C@H](NC(=O)c1cn(C)c2ccc(-c3ccn4nc(NC(=O)CN5CCCOCC5)nc4c3)cc12)c1ccc(F)cc1` [Compound 30] cannot be ordered by EC50: less than 1 nM for the first, less than 1 nM for the second.

Compared with `C[C@H](NC(=O)c1cn(C)c2ccc(-c3ccn4nc(NC(=O)C(=O)N5CCOCC5)nc4c3)cc12)c1ccc(F)cc1` [Compound 9], `C[C@H](NC(=O)c1cn(C)c2ccc(-c3ccn4nc(NC(=O)C(N)=O)nc4c3)cc12)c1ccc(F)cc1` [Compound 11] is higher in EC50: less than 1 nM for the first, 1 to 10 nM for the second. The first is the more potent here.

Compared with `CCOC(=O)C(=O)Nc1nc2cc(-c3ccc4c(c3)c(C(=O)N[C@@H](C)c3ccc(F)cc3)cn4C)ccn2n1` [Compound 10], `CCOC(=O)Nc1nc2cc(-c3ccc4c(c3)c(C(=O)N[C@@H](C)c3ccc(F)cc3)cn4C)ccn2n1` [Compound 17] is lower in EC50: 1 to 10 nM for the first, less than 1 nM for the second. The second is the more potent here.

First: C[C@H](NC(=O)c1cn(C)c2ccc(-c3ccn4nc(NC(=O)CC5CCCCC5)nc4c3)cc12)c1ccc(F)cc1 [Compound 13]
Second: C[C@H](NC(=O)c1cn(C)c2ccc(-c3ccn4nc(NC(=O)CN5CCCC(CO)C5)nc4c3)cc12)c1ccc(F)cc1 (stereo partly shown) [Compound 44]
The EC50 of the first is lower: less than 1 nM for the first, 1 to 10 nM for the second. The first is the more potent here.

First: C[C@H](NC(=O)c1cn(C)c2ccc(-c3ccn4nc(NC(=O)CN5CCOCC5=O)nc4c3)cc12)c1ccc(F)cc1 [Compound 16]
Second: C[C@H](NC(=O)c1cn(C)c2ccc(-c3ccn4nc(NC(=O)CN5CCCO5)nc4c3)cc12)c1ccc(F)cc1 [Compound 22]
The EC50 of the first is higher: 10 to 100 nM for the first, 1 to 10 nM for the second. The second is the more potent here.

`C[C@H](NC(=O)c1cn(C)c2ccc(-c3ccn4nc(NC(=O)CN5CCOC(C)(C)C5)nc4c3)cc12)c1ccc(F)cc1` [Compound 18] and `CC1CN(CC(=O)Nc2nc3cc(-c4ccc5c(c4)c(C(=O)N[C@@H](C)c4ccc(F)cc4)cn5C)ccn3n2)CCO1` (stereo partly shown) [Compound 45] cannot be ordered by EC50: less than 1 nM for the first, less than 1 nM for the second.

`COC1CCN(CC(=O)Nc2nc3cc(-c4ccc5c(c4)c(C(=O)N[C@@H](C)c4ccc(F)cc4)cn5C)ccn3n2)C1` (stereo partly shown) [Compound 19] and `COC1CCN(CC(=O)Nc2nc3cc(-c4ccc5c(c4)c(C(=O)N[C@@H](C)c4ccc(F)cc4)cn5C)ccn3n2)CC1` [Compound 24] cannot be ordered by EC50: less than 1 nM for the first, less than 1 nM for the second.

`C[C@H](NC(=O)c1cn(C)c2ccc(-c3ccn4nc(NC(=O)CN5CC[C@@H](F)C5)nc4c3)cc12)c1ccc(F)cc1` [Compound 20] and `C[C@H](NC(=O)c1cn(C)c2ccc(-c3ccn4nc(NC(=O)CN5CC[C@H](F)C5)nc4c3)cc12)c1ccc(F)cc1` [Compound 21] cannot be ordered by EC50: less than 1 nM for the first, less than 1 nM for the second.

`COCCOCCOCC(=O)Nc1nc2cc(-c3ccc4c(c3)c(C(=O)N[C@@H](C)c3ccc(F)cc3)cn4C)ccn2n1` [Compound 25] and `COCCOCCOCCOCC(=O)Nc1nc2cc(-c3ccc4c(c3)c(C(=O)N[C@@H](C)c3ccc(F)cc3)cn4C)ccn2n1` [Compound 26] cannot be ordered by EC50: less than 1 nM for the first, less than 1 nM for the second.

`C[C@H](NC(=O)c1cn(C)c2ccc(-c3ccn4nc(NC(=O)CN5CCC6(CC5)OCCO6)nc4c3)cc12)c1ccc(F)cc1` [Compound 27] and `C[C@H](NC(=O)c1cn(C)c2ccc(-c3ccn4nc(NC(=O)CN5CCSCC5)nc4c3)cc12)c1ccc(F)cc1` [Compound 43] cannot be ordered by EC50: less than 1 nM for the first, less than 1 nM for the second.

Compared with `C[C@H](NC(=O)c1cn(C)c2ccc(-c3ccn4nc(NC(=O)CN5CCS(=O)(=O)CC5)nc4c3)cc12)c1ccc(F)cc1` [Compound 28], `C[C@H](NC(=O)c1cn(C)c2ccc(-c3ccn4nc(NC(=O)CN5CCN(C)CC5)nc4c3)cc12)c1ccc(F)cc1` [Compound 51] is lower in EC50: 1 to 10 nM for the first, less than 1 nM for the second.

`C[C@H](NC(=O)c1cn(C)c2ccc(-c3ccn4nc(NC(=O)CN5CC(C)(C#N)C5)nc4c3)cc12)c1ccc(F)cc1` [Compound 29] and `C[C@H](NC(=O)c1cn(C)c2ccc(-c3ccn4nc(NC(=O)CN5CC(F)(F)C5)nc4c3)cc12)c1ccc(F)cc1` [Compound 42] cannot be ordered by EC50: less than 1 nM for the first, less than 1 nM for the second.

Compared with `C[C@H](NC(=O)c1cn(C)c2ccc(-c3ccn4nc(NC(=O)C5(C(=O)O)CC5)nc4c3)cc12)c1ccc(F)cc1` [Compound 31], `C[C@H](NC(=O)c1cn(C)c2ccc(-c3ccn4nc(NC(=O)CN5CCC[C@H]5C(=O)O)nc4c3)cc12)c1ccc(F)cc1` [Compound 37] is lower in EC50: 10 to 100 nM for the first, 1 to 10 nM for the second.

First: C[C@H](NC(=O)c1cn(C)c2ccc(-c3ccn4nc(NC(=O)CN5CCOCC5C(=O)O)nc4c3)cc12)c1ccc(F)cc1 (stereo partly shown) [Compound 33]
Second: C[C@H](NC(=O)c1cn(C)c2ccc(-c3ccn4nc(NC(=O)CN5CCOC[C@@H]5C)nc4c3)cc12)c1ccc(F)cc1 [Compound 60]
The EC50 of the first is higher: 1000 to 10000 nM for the first, less than 1 nM for the second. The second is the more potent here.

`C[C@H](NC(=O)c1cn(C)c2ccc(-c3ccn4nc(NC(=O)CN5CC(C#N)C5)nc4c3)cc12)c1ccc(F)cc1` [Compound 34] and `C[C@@H]1CN(CC(=O)Nc2nc3cc(-c4ccc5c(c4)c(C(=O)N[C@@H](C)c4ccc(F)cc4)cn5C)ccn3n2)C[C@H](C)O1` [Compound 46] cannot be ordered by EC50: less than 1 nM for the first, less than 1 nM for the second.

First: C[C@H](NC(=O)c1cn(C)c2ccc(-c3ccn4nc(NC(=O)CN5CCOC[C@@H]5CO)nc4c3)cc12)c1ccc(F)cc1 [Compound 35]
Second: C[C@H](NC(=O)c1cn(C)c2ccc(-c3ccn4nc(NC(=O)CN5CC[C@H](CO)C5)nc4c3)cc12)c1ccc(F)cc1 [Compound 61]
The EC50 of the first is lower: less than 1 nM for the first, 1 to 10 nM for the second.

`CCN(CC)CC(=O)Nc1nc2cc(-c3ccc4c(c3)c(C(=O)N[C@@H](C)c3ccc(F)cc3)cn4C)ccn2n1` [Compound 36] and `C[C@H](NC(=O)c1cn(C)c2ccc(-c3ccn4nc(NC(=O)CN(C)C)nc4c3)cc12)c1ccc(F)cc1` [Compound 40] cannot be ordered by EC50: less than 1 nM for the first, less than 1 nM for the second.

`C[C@H](NC(=O)c1cn(C)c2ccc(-c3ccn4nc(NC(=O)CN5CCC(N6CCOCC6)CC5)nc4c3)cc12)c1ccc(F)cc1` [Compound 38] and `C[C@H](NC(=O)c1cn(C)c2ccc(-c3ccn4nc(NC(=O)CN5CCN(C(=O)C6CC6)CC5)nc4c3)cc12)c1ccc(F)cc1` [Compound 50] cannot be ordered by EC50: less than 1 nM for the first, less than 1 nM for the second.

First: C[C@H](NC(=O)c1cn(C)c2ccc(-c3ccn4nc(NC(=O)CN5C[C@H]6C[C@@H]5CO6)nc4c3)cc12)c1ccc(F)cc1 [Compound 39]
Second: C[C@H](NC(=O)c1cn(C)c2ccc(-c3ccn4nc(NC(=O)Cn5ccnc5)nc4c3)cc12)c1ccc(F)cc1 [Compound 48]
The EC50 of the first is lower: less than 1 nM for the first, 10 to 100 nM for the second.

`C[C@H](NC(=O)c1cn(C)c2ccc(-c3ccn4nc(NC(=O)Cn5ccnn5)nc4c3)cc12)c1ccc(F)cc1` [Compound 52] and `C[C@H](NC(=O)c1cn(C)c2ccc(-c3ccn4nc(NC(=O)Cn5cccn5)nc4c3)cc12)c1ccc(F)cc1` [Compound 58] cannot be ordered by EC50: less than 1 nM for the first, less than 1 nM for the second.

First: CC(=O)N1CCN(CC(=O)Nc2nc3cc(-c4ccc5c(c4)c(C(=O)N[C@@H](C)c4ccc(F)cc4)cn5C)ccn3n2)CC1 [Compound 53]
Second: C[C@H](NC(=O)c1cn(C)c2ccc(-c3ccn4nc(NC(=O)Cn5cncn5)nc4c3)cc12)c1ccc(F)cc1 [Compound 57]
The EC50 of the first is lower: less than 1 nM for the first, 10 to 100 nM for the second. The first is the more potent here.

`C[C@H](NC(=O)c1cn(C)c2ccc(-c3ccn4nc(NC(=O)CN5C6CC7CC(C6)C(O)C5C7)nc4c3)cc12)c1ccc(F)cc1` (stereo partly shown) [Compound 59] gave an EC50 of less than 1 nM.
